The subject of series [1] is arthritic joints. Put plainly: CRV accumulation in joints of K/BxN serum-transfer arthritis mice (IHC). In kind it is in vivo, mouse. The conditions noted are these: FAM peptide i.v., 1 hour. The method, then: (B) The arthritic mice were injected intravenously with a control peptide (GGS, top) or CRV (bottom). The mice were sacrificed after 1 hour and joints were collected for IHC staining.
FIGS. 7B-7D illustrates In vivo CRV peptide distribution in arthritic mouse models. (B) Scheme of synthesis of 64Cu-DOTA-CRV. (C) Representative immunohistochemistry (IHC) images of peptide accumulation in the tissues of collagen-induced-arthritis (CIA) mice with anti-FITC antibody for FAM-labeled CRV and FAM-GGS, upon intravenous injection for 1 h, respectively. Scale bars: 100 μm. (D) Representative IHC images of CRV-peptide and a control peptide (GGS) accumulation in the ankle joints of K/B×N serum-transfer arthritic mice at 1 h post intravenous injection as detected by FAM signals with anti-FITC antibody. Scale bar: 200 μm for 10× magnification; 100 μm for 20× magnification. All the animal experiments were performed in 3 mice per group. DOTA, 1,4,7,10-tetraazacyclododocane tetraacetic acid; FAM, carboxyfluorescein; FITC, fluorescein isothiocyanate.
To study the accumulation of CRV in inflamed joints, 100 μl of fluorescein (FAM)-CRV peptide solution (1 mg/ml in PBS) and the control peptide, GGS (SEQ ID NO: 2), was injected intravenously into mice with K/B×N serum-transfer arthritis (for a description of this mouse model, see VetPathol 52(5):819-26, 2015). […]

The test system of series [2] is inflamed lung. The series is described as follows: CRV peptide homing in LPS-induced ALI mice (IHC/IF). The conditions noted are these: healthy (PBS) mice; FAM-labeled peptide i.v., 1 h; IHC and IF. The series is classed as in vivo, mouse. The method, then:
(A) Representative immunohistochemistry (IHC) images of targeting RXRB by CRV peptide in the lung of acute lung injury (ALI) mice. Control (PBS) or ALI (LPS-treated) mice were intravenously injected with FAM-labeled CRV or a control peptide (GGS) for 1 h homing, respectively. The lungs were collected for IHC analysis on whole-cell RXRB expression (left) and peptide amount (detected by anti-FITC antibody, right). (B) Quantification of FITC expression for FAM-labeled peptides in the lungs by IHC staining. (C) Representative immunofluorescence (IF) images of colocalization of rabbit anti-RXRB antibody with CD11b in PBS controls (top) and acute lung injury (ALI) mice (bottom). The lungs were collected for IF staining for the indicated markers after 6 h in vivo homing by intravenous injection of 25 mg of rabbit polyclonal RXRB antibodies in […] of PBS in mice. The mice receiving intratracheal injection of PBS served as healthy controls. All the animal experiments were performed in three mice per group. (D) Relative percentage of RXRB-positive cells in different tissues of ALI mice. […] The fluorescence intensity for CRV or GGS binding per cells was plotted in the histograms. […] (H) Quantification of RXRB in IHC sections from lungs of human subjects with ILD. […] FAM, carboxyfluorescein; FITC, fluorescein iso-thiocyanate; A.U., arbitrary units; MFI, mean fluorescence intensity; Neg, negative. […]

Series [3] deals with 4T1 breast cancer tumor. The series is described as follows: Tumor accumulation of D-CRV and L-CRV after oral administration. The series is classed as in vivo, mouse. The conditions noted are these: 4 hours, IF. Here is the method: FAM-labeled L-CRV or D-CRV was orally administered to tumor-bearing mice.
To compare the in vivo distributions of the D-isoform of CRV (D-CRV) and the L-isoform of CRV (L-CRV), fluorescein (FAM) dye labeled D-CRV and L-CRV peptides were synthesized. 100 μL of peptide solution (5 mg/mL in PBS) was administered via oral gavage into mice bearing a 4T1 breast cancer tumor (for a description of how this mouse model is generated, see J Control Release 301:42-53, 2019) 4 hours before the tumors were collected. Peptide accumulation in the tumor was observed by immunofluorescence (IF) staining of FAM. We had previously shown that L-CRV homes to such tumors following intravenous injection. […] Additionally, (D)-CRV-DEX was first applied to RA mice model via subcutaneous administration with hydrogel. […] The pharmacokinetics (PK) and biodistribution at other time points will be further evaluated.

A short description of series [4]: In vivo pharmacokinetics of PSL conjugates. The conditions noted are these: male, C57BL/6, mouse, plasma, iv, healthy mice, 1 mg kg-1 equivalent dose of PSL. Here is the method: FIG. 2U discloses mean plasma concentration-time curves of PSL following intravenous administration of free PSL, Cys-PSL and CRV-PSL with an equivalent PSL dosage at 1 mg kg^−1. All the animal experiments were performed in 3-4 mice per group. The data are presented as the mean±standard deviation (SD). Statistical significance was calculated using Student's t test. *P<0.05, **P<0.01, CRV-PSL vs free PSL group; #P<0.05, ##P<0.01, ###P<0.001 Cys-PSL vs free PSL group.
HPLC-MS/MS analysis was performed using the chromatographic system consisted of UltiMate™ 3000 RSLCnano System (Thermo Fisher Scientific) and a ZORBAX™ C18 column (5 μm, 150 mm 0.5 mm, Agilent, Santa Clara, CA). The mobile phase was a mixture of H2O/acetonitrile with a gradient elution (from 90:10 to 10:90 and return to 90:10, v/v) at a flow rate of 15 μl/min. The eluent was introduced directly into the electrospray source of a tandem quadrupole mass spectrometer (TSQ VANTAGE™, Thermo Fisher Scientific) that was operated in the positive mode. The spray voltage was set at 3000 V. The compounds were analyzed by multiple reaction monitoring (MRM) of the transitions of m/z (ESI+) 361.24→147.06 for PSL.
Healthy male C57BL/6 mice (8- to 9-weeks-old; body weight of 25-30 g) were deprived of food overnight with free access to water. […]
We first evaluated the plasma pharmacokinetics of CRV-PSL in healthy mice.

Series [5] is classed as in vivo, mouse. As to conditions: for Thymus weight: mean; for Lymphocytes (count of total blood lymphocytes) / T cells (CD45+CD3+) count: normalized to the vehicle group.
Protocol: (C and D) Flow-cytometry analysis of blood cell populations in mice with different treatment. The count of (C) blood lymphocytes and (D) T cells in mice receiving different treatment were normalized to the vehicle group. […] The weight of thymus was measured, and the blood was collected for flow cytometry 4 h after the third dose of treatment. All experiments were performed in 3-4 mice per group, and the experiment was repeated three times. Data shown are mean±SD. Student's t test was performed for statistical analysis. *p<0.05, **p<0.01, ***p<0.001.
The gating was started with choosing the live cells by plotting SSC-A vs. FSC-A. Single cells were then selected by plotting FSC-A vs. FSC-H for the live cells followed by subpopulation of CD45+ cells. The lymphocytes were selected by plotting CD45+ cells and SSC-A, which were then selected for T cells by CD3 staining. The tissues and the blood were collected 4 hours after the third dose of treatment. All experiments were performed in 3-4 mice per group and the experiment was repeated three times. The data are presented as the mean±standard deviation (SD). Statistical significance was calculated using Student's t test.
To identify subpopulations of myeloid cells, single cell suspensions were collected from the lung with a lung dissociation kit for mouse (Miltenyi Biotec, Auburn, CA) and other tissues, including blood and spleen, were collected for flow cytometry analysis. […] Flow cytometry analysis was performed on a BD Fortessa™ X-20 (BD Biosciences, East Rutherford, NJ). The data were analyzed with Flow JO™ software (Tree Star, San Carlos, CA).
Setting [6] is: 0.1 or 1 mg kg-1 PSL equivalent.

Like-named read-outs stand apart in the source and are kept apart here. Bridge positions count the residues as written; N and C are the ends. Square brackets hold non-standard residues; d marks the D form. Ends that are not written are not given here. FAM = fluorescein amidite (fluorescein); Ahx = NCCCCCC(=O)O

Consider “GGS: control peptide <FAM>-<Ahx>-GGSGGSKG (SEQ ID NO: 2) ({FAM-Ahx}-GGSGGSKG)”, for which the “peptide accumulation in arthritic joints” value in series [1] is “few FAM signals were detected”. In addition, in series [2], the “peptide accumulation in the healthy lung” value was “little accumulation”.

“D-CRV: D-isoform of CRV (SEQ ID NO: 52), fluorescein (FAM) dye labeled ([dC][dR][dV][dL][dR][dS]G[dS][dC]; disulfide 1-9 (inferred); also: FAM label, position not given here)”: the “peptide accumulation in the tumor” value in series [3] (FAM-labeled peptide, oral gavage 100 uL of 5 mg/mL) was “significant accumulation of CRV in the tumors”. In series [3] (oral gavage), the “colocalization with CD11b in the tumor” value is on record as “colocalization with the myeloid cell marker CD11b in the tumor”.

Consider `C[C@]12C=CC(=O)C=C1CC[C@@H]1[C@@H]2[C@@H](O)C[C@@]2(C)[C@H]1CC[C@]2(O)C(=O)CO` [Free PSL, prednisolone], for which the AUC(0-t) in series [4] (mean (n = 3)) was found to be 41300 ng·h/mL. In addition, the half-life in series [4] (mean ± SD (n = 3)) is 3.78 ± 0.5 h. In series [5] (0.1 mg kg-1 PSL equivalent i.v. every 2 days for 5 days), the Thymus weight stood at 36.3 mg. Moreover, in series [5] (0.1 mg kg-1 PSL equivalent), the “Lymphocytes (count of total blood lymphocytes)” value is 0.45 fold changes and the “T cells (CD45+CD3+) count” value is 0.47 fold changes. Further, in series [5] (1 mg kg-1 PSL equivalent i.v. every 2 days for 5 days), the Thymus weight stood at 28.3 mg. In addition, in series [5] (1 mg kg-1 PSL equivalent), the “Lymphocytes (count of total blood lymphocytes)” value was 0.27 fold changes and the “T cells (CD45+CD3+) count” value amounted to 0.40 fold changes. Further, in series [5] (setting [6]), the “apoptosis in the thymus and other organs (TUNEL)” value is “increases the level of apoptosis mainly in the thymus”; the “counts of total lymphocytes and T subsets (in words)” value was “reduced the counts of total lymphocytes and T subsets”. Besides, in series [5] (0.1 or 1 mg kg-1 PSL equivalent i.v. every two days for five days), the “thymus weight (in words)” value is listed as “greatest reduction in thymus weight”.

Usually AUC(0-t) stands for the area under the concentration-time curve up to a stated or last time point. The term half-life denotes the time needed for the level to fall by half in the phase considered.
